Reference: ChEMBL document CHEMBL1201862, “PubChem BioAssay data set” (2004)
Activity calls are given as the source filed them.

How the values were obtained:
[1] = biological target: Inhibitor of nuclear factor kappa-B kinase subunit epsilon (Homo sapiens, UniProt Q14164); test: Navigating the Kinome. Panel member name: IKBKE; assay type: functional
[2] = biological target: Leukocyte tyrosine kinase receptor (Homo sapiens, UniProt P29376); test: Navigating the Kinome. Panel member name: LTK; assay type: functional
Leukocyte tyrosine kinase receptor, sequence (P29376 whole entry): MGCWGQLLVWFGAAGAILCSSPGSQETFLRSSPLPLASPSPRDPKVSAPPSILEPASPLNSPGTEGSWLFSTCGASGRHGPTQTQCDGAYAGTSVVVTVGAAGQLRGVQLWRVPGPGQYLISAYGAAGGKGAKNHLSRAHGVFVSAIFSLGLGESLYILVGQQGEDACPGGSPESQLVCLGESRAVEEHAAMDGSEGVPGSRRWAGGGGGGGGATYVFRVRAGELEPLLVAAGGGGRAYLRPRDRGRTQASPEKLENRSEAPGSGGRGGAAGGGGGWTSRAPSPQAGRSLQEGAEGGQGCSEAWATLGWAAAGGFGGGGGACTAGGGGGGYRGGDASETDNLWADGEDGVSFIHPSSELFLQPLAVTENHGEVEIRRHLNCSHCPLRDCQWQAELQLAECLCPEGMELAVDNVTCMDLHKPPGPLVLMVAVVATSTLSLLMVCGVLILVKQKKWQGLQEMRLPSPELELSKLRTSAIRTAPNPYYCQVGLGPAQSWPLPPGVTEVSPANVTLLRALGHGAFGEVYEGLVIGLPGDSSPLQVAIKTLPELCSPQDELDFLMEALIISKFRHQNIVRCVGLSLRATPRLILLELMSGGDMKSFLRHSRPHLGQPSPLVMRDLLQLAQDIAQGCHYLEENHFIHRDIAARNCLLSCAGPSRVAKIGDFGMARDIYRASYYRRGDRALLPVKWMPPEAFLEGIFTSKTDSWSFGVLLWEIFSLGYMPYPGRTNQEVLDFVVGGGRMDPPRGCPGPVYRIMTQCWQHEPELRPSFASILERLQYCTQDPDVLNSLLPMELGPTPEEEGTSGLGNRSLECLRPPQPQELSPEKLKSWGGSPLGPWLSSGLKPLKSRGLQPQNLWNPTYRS

[3] = biological target: 5'-AMP-activated protein kinase catalytic subunit alpha-1 (Homo sapiens, UniProt Q13131); assay type: functional
Activin receptor type-1 = Activin receptor type-1 (Homo sapiens, UniProt Q04771); test: Navigating the Kinome. Panel member name: ACVR1; assay type: functional
[4] = biological target: Mitogen-activated protein kinase 8 (Homo sapiens, UniProt P45983); assay type: functional;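 also: value comes from one member of a kinome-wide kinase profiling panel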
[5] = biological target: Serine/threonine-protein kinase TBK1 (Homo sapiens, UniProt Q9UHD2); test: Navigating the Kinome. Panel member name: TBK1; assay type: functional
[6] = biological target: Death-associated protein kinase 3 (Homo sapiens, UniProt O43293); assay type: functional;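 also: measured as one member of a kinome-wide profiling panel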
[7] = biological target: Dual specificity mitogen-activated protein kinase kinase 2 (Homo sapiens, UniProt P36507); test: Navigating the Kinome. Panel member name: MAP2K2; assay type: functional
[8] = biological target: Dual specificity tyrosine-phosphorylation-regulated kinase 1A (Homo sapiens, UniProt Q13627); assay type: functional;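 also: measured against DYRK1A as one member of a broad kinome profiling panel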
[9] = biological target: Glycogen synthase kinase-3 alpha (Homo sapiens, UniProt P49840); assay type: functional;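 also: GSK3A result taken from a broad kinome-wide kinase panel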
Glycogen synthase kinase-3 alpha, sequence (P49840 whole entry): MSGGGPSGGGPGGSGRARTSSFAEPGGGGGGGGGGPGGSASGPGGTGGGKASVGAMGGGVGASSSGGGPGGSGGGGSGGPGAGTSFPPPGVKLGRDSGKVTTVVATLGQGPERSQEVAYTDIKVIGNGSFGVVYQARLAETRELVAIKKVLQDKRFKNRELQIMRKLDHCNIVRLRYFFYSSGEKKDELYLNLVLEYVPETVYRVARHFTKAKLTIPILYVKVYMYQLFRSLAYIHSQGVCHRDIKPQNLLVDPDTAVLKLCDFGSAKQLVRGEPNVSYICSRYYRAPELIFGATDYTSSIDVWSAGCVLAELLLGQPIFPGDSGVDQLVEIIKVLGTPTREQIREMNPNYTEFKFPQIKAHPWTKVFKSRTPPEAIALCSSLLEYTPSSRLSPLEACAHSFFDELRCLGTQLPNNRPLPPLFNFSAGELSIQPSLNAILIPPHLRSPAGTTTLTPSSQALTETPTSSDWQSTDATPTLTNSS

[10] = biological target: Macrophage-stimulating protein receptor (Homo sapiens, UniProt Q04912); test: Navigating the Kinome. Panel member name: MST1R; assay type: functional
[11] = biological target: Serine/threonine-protein kinase pim-1 (Homo sapiens, UniProt P11309); assay type: functional
[12] = biological target: Serine/threonine-protein kinase D3 (Homo sapiens, UniProt O94806); assay type: functional;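 also: determined within a kinase panel screen, with PRKCN as the panel member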
[13] = biological target: Leucine-rich repeat serine/threonine-protein kinase 2 (Homo sapiens, UniProt Q5S007); assay type: functional;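 also: value from a broad kinome-wide panel profiling study in which LRRK2 was one of the kinases tested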
[14] = biological target: Tyrosine-protein kinase ABL1 (Homo sapiens, UniProt P00519); assay type: functional
[15] = biological target: BDNF/NT-3 growth factors receptor (Homo sapiens, UniProt Q16620); assay type: functional;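 also: NTRK2 measured as one member of a broad kinome-wide kinase profiling panel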
[16] = biological target: Proto-oncogene tyrosine-protein kinase receptor Ret (Homo sapiens, UniProt P07949); assay type: functional;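 also: measured within a kinome-wide profiling panel, RET as the panel member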
[17] = biological target: High affinity nerve growth factor receptor (Homo sapiens, UniProt P04629); assay type: functional;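 also: NTRK1 tested as one member of a kinome-wide profiling panel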
[18] = biological target: Dual specificity protein kinase CLK2 (Homo sapiens, UniProt P49760); assay type: functional
[19] = biological target: Platelet-derived growth factor receptor alpha (Homo sapiens, UniProt P16234); test: Navigating the Kinome. Panel member name: PDGFRA; assay type: functional
[20] = biological target: Serine/threonine-protein kinase N2 (Homo sapiens, UniProt Q16513); assay type: functional
[21] = biological target: Mitogen-activated protein kinase 9 (Homo sapiens, UniProt P45984); assay type: functional;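 also: value from a kinome panel profiling assay, MAPK9 panel entry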
[22] = biological target: Mitogen-activated protein kinase 14 (Homo sapiens, UniProt Q16539); assay type: functional;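 also: part of a kinome-wide panel, MAPK14 entry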
[23] = biological target: Receptor-type tyrosine-protein kinase FLT3 (Homo sapiens, UniProt P36888); assay type: functional;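 also: FLT3 was tested as one member of a kinome-wide kinase panel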
Receptor-type tyrosine-protein kinase FLT3, sequence (P36888 whole entry): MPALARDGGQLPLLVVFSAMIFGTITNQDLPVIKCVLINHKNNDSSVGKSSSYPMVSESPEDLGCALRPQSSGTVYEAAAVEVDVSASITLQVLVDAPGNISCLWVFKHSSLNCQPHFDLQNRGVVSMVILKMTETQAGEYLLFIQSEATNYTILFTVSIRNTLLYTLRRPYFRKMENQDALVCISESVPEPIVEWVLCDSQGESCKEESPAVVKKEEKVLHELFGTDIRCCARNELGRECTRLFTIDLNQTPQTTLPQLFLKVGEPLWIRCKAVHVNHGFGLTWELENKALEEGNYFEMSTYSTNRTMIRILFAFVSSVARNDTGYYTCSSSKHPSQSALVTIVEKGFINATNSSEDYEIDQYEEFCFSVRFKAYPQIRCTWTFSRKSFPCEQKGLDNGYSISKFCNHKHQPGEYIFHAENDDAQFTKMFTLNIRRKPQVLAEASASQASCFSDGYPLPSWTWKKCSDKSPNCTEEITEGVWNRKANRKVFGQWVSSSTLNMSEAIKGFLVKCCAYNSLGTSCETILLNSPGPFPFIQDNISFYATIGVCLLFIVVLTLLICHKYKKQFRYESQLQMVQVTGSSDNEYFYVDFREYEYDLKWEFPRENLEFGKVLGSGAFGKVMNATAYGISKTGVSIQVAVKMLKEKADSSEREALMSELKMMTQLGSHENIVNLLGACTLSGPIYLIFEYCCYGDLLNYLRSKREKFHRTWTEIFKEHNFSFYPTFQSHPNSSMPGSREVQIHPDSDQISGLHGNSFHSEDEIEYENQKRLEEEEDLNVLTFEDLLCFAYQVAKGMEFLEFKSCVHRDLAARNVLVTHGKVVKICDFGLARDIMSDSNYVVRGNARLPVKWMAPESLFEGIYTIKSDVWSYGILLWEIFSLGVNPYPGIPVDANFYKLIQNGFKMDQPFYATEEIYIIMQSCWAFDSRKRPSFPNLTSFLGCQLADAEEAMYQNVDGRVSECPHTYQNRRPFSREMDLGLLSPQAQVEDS

[24] = biological target: Mitogen-activated protein kinase kinase kinase kinase 2 (Homo sapiens, UniProt Q12851); assay type: functional;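 also: measured as one member of a kinome-wide kinase panel, with MAP4K2 as the panel entry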
[25] = biological target: Vascular endothelial growth factor receptor 2 (Homo sapiens, UniProt P35968); assay type: functional
[26] = biological target: Mast/stem cell growth factor receptor Kit (Homo sapiens, UniProt P10721); assay type: functional;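 also: KIT entry within a kinase panel assay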
Aurora kinase A = Aurora kinase A (Homo sapiens, UniProt O14965); assay type: functional;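 also: value from the Navigating the Kinome kinase panel profiling, panel entry STK6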
[27] = biological target: Insulin-like growth factor 1 receptor (Homo sapiens, UniProt P08069); test: Navigating the Kinome. Panel member name: IGF1R; assay type: functional
[28] = biological target: Glycogen synthase kinase-3 beta (Homo sapiens, UniProt P49841); assay type: functional;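 also: value comes from a broad kinome profiling panel, with GSK3B as the panel member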
[29] = biological target: Tyrosine-protein kinase BTK (Homo sapiens, UniProt Q06187); assay type: functional
Tyrosine-protein kinase BTK, sequence (Q06187 whole entry): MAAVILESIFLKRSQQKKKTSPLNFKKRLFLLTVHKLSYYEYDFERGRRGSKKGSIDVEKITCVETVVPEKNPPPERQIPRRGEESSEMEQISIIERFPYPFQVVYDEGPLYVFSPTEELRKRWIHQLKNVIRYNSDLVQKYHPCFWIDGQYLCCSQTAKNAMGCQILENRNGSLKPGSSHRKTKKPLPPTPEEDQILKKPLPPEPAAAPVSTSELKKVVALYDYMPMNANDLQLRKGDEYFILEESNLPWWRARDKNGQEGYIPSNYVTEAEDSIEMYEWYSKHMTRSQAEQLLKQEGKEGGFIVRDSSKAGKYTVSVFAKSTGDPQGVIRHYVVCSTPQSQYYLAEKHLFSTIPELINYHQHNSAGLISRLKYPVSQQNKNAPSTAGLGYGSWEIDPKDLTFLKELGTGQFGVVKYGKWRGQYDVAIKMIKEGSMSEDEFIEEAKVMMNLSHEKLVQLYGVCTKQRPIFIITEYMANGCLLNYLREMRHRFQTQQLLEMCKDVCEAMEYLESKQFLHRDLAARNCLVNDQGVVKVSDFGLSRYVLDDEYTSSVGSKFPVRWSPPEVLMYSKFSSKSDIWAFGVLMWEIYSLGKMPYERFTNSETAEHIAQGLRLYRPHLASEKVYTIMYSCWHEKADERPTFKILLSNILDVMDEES

[30] = biological target: Cyclin-dependent kinase 8 (Homo sapiens, UniProt P49336); test: Navigating the Kinome. Panel member name: CDK8; assay type: functional
[31] = biological target: Tyrosine-protein kinase Lck (Homo sapiens, UniProt P06239); assay type: functional;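 also: lck was assayed as one member of a kinase panel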
[32] = biological target: Cyclin-dependent kinase 19 (Homo sapiens, UniProt Q9BWU1); test: Navigating the Kinome. Panel member name: CDC2L6; assay type: functional
[33] = biological target: Mitogen-activated protein kinase kinase kinase kinase 5 (Homo sapiens, UniProt Q9Y4K4); assay type: functional;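 also: measured as one member of a kinome-spanning kinase panel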
[34] = biological target: Protein kinase C theta type (Homo sapiens, UniProt Q04759); test: Navigating the Kinome. Panel member name: PRKCQ; assay type: functional
[35] = biological target: Vascular endothelial growth factor receptor 1 (Homo sapiens, UniProt P17948); assay type: functional;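 also: measured within a kinome-wide profiling panel, FLT1 as the panel member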
[36] = biological target: Dual specificity tyrosine-phosphorylation-regulated kinase 1B (Homo sapiens, UniProt Q9Y463); test: Navigating the Kinome. Panel member name: DYRK1B; assay type: functional
Dual specificity tyrosine-phosphorylation-regulated kinase 1B, sequence (Q9Y463 whole entry): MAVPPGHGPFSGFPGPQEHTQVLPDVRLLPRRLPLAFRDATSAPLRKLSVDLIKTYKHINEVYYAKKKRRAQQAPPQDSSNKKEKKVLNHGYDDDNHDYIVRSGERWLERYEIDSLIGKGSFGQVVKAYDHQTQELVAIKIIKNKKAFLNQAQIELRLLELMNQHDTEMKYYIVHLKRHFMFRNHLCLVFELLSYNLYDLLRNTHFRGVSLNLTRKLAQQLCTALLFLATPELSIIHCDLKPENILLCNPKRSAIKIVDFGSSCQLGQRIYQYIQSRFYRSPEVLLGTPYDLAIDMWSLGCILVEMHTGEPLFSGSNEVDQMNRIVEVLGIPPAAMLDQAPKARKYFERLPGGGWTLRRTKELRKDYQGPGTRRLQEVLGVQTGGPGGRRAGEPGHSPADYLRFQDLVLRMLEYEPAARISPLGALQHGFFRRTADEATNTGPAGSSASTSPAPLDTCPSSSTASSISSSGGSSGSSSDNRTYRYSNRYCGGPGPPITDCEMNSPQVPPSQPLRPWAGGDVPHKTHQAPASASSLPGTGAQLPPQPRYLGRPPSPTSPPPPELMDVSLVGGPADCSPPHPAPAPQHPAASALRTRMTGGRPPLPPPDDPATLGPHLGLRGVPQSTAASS

[37] = biological target: G protein-coupled receptor kinase 5 (Homo sapiens, UniProt P34947); test: Navigating the Kinome. Panel member name: GPRK5; assay type: functional
[38] = biological target: Cyclin-dependent kinase 5 (Homo sapiens, UniProt Q00535); assay type: functional;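 also: CDK5 measured as one member of a kinase profiling panel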
[39] = biological target: Fibroblast growth factor receptor 1 (Homo sapiens, UniProt P11362); assay type: functional
[40] = biological target: ALK tyrosine kinase receptor (Homo sapiens, UniProt Q9UM73); assay type: functional;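 also: ALK tested as one member of a kinase panel screen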
[41] = biological target: Tyrosine-protein kinase receptor TYRO3 (Homo sapiens, UniProt Q06418); assay type: functional;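 also: TYRO3 value obtained as one member of a kinome-wide profiling panel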
[42] = biological target: Cyclin-dependent kinase 9 (Homo sapiens, UniProt P50750); assay type: functional;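 also: value from the CDK9 entry of a kinome-spanning kinase panel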
Cyclin-dependent kinase 9, sequence (P50750 whole entry): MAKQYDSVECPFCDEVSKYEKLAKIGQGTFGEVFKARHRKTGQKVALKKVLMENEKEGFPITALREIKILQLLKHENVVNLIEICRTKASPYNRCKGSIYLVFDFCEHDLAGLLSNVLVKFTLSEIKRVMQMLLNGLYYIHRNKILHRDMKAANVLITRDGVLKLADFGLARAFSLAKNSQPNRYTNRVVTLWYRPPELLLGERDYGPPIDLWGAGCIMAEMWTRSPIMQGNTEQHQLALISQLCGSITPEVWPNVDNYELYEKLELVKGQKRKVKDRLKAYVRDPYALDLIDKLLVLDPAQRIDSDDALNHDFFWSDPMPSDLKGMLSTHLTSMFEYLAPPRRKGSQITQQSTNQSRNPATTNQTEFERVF

[43] = biological target: Calcium/calmodulin-dependent protein kinase type II subunit alpha (Homo sapiens, UniProt Q9UQM7); test: Navigating the Kinome. Panel member name: CAMK2A; assay type: functional
[44] = biological target: Mitogen-activated protein kinase kinase kinase kinase 4 (Homo sapiens, UniProt O95819); assay type: functional
[45] = biological target: Tyrosine-protein kinase Fyn (Homo sapiens, UniProt P06241); assay type: functional
[46] = biological target: Tyrosine-protein kinase JAK2 (Homo sapiens, UniProt O60674); assay type: functional;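 also: JAK2 tested as one member of a kinase panel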
[47] = biological target: Dual specificity protein kinase CLK4 (Homo sapiens, UniProt Q9HAZ1); assay type: functional
Activated CDC42 kinase 1 = Activated CDC42 kinase 1 (Homo sapiens, UniProt Q07912); test: Navigating the Kinome. Panel member name: ACK1; assay type: functional
Activated CDC42 kinase 1, sequence (Q07912 whole entry): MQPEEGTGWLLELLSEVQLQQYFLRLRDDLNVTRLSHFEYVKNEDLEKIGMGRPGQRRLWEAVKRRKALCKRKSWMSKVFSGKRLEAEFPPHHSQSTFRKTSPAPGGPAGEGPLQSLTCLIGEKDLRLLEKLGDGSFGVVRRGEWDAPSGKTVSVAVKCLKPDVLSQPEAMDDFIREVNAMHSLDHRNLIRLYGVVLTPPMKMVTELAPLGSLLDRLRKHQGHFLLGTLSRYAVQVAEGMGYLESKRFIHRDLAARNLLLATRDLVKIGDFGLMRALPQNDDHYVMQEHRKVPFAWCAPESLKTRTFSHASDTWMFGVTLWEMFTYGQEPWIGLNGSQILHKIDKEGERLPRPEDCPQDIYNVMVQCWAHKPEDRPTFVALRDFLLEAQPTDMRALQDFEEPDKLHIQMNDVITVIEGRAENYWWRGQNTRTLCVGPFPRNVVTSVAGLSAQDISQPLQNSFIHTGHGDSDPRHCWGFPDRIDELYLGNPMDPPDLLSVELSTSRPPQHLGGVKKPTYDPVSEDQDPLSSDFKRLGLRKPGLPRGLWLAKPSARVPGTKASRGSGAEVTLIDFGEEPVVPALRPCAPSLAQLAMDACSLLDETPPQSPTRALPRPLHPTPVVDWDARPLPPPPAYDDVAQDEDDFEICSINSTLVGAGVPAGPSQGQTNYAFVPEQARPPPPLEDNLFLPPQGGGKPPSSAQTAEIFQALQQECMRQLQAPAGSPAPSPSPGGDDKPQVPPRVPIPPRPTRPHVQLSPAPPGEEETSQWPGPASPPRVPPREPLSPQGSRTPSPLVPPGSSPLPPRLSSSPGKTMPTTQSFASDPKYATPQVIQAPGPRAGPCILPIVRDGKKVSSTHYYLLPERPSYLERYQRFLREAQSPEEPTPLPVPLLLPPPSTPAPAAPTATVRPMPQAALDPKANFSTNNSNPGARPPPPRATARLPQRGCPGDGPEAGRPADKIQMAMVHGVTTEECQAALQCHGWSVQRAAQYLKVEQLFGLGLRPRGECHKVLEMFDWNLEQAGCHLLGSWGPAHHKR

[48] = biological target: cAMP-dependent protein kinase catalytic subunit PRKX (Homo sapiens, UniProt P51817); assay type: functional
[49] = biological target: Dual specificity mitogen-activated protein kinase kinase 1 (Homo sapiens, UniProt Q02750); test: Navigating the Kinome. Panel member name: MAP2K1; assay type: functional
[50] = biological target: Serine/threonine-protein kinase TAO1 (Homo sapiens, UniProt Q7L7X3); assay type: functional
[51] = biological target: cAMP-dependent protein kinase catalytic subunit alpha (Homo sapiens, UniProt P17612); assay type: functional
[52] = biological target: Macrophage colony-stimulating factor 1 receptor (Homo sapiens, UniProt P07333); assay type: functional;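 also: value comes from the Navigating the Kinome screening panel, CSF1R member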
[53] = biological target: Tyrosine-protein kinase JAK3 (Homo sapiens, UniProt P52333); assay type: functional
[54] = biological target: T1, Corticotropin-releasing factor receptor 2/Corticotropin-releasing factor-binding protein (Homo sapiens, UniProt P24387+Q13324); test: activators of CRF receptor 2 with binding protein – uHTS hits, confirmation (AID 602473); assay type: functional; settings: read-out: EC50_Mean
T1 sequence (Q13324 whole entry): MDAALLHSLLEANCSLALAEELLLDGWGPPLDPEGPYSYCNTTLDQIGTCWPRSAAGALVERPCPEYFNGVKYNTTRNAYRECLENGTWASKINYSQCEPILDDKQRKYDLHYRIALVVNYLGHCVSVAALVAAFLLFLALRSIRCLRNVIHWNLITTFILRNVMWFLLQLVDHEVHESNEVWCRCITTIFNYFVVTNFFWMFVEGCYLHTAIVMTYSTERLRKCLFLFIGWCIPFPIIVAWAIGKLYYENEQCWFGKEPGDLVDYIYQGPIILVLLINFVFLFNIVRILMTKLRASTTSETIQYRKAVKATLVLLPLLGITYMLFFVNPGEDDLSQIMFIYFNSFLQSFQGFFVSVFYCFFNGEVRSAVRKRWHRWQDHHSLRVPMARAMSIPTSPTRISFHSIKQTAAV
T1 sequence (P24387 whole entry): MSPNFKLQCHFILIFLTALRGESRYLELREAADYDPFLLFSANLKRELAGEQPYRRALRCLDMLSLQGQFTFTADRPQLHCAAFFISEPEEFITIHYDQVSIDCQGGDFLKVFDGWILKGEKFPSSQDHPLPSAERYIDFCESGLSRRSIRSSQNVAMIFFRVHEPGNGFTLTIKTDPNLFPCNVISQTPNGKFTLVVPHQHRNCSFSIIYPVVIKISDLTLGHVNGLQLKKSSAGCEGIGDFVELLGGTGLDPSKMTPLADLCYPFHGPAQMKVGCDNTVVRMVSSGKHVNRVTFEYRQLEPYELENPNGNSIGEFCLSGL

[55] = microbe, parasite or virus in culture; assay type: functional; settings: Mycobacterium tuberculosis
[56] = A Cell Based Secondary Assay to Explore Cytotoxicity in HepG2 Cells of Compounds that Modulate Mycobacterium tuberculosis in Media Containing Glycerol versus Media without Glycerol (2).; assay type: functional
[57] = Vero cell cytotoxicity, dose response, cytotoxicity control for M. tuberculosis growth inhibitor project, Vero cells, purified and synthesized compounds, set 5 (AID 504909); assay type: functional; settings: Mycobacterium tuberculosis
[58] = HepG2 cell cytotoxicity, dose response, cytotoxicity control, set 3 (AID 504853); assay type: functional; settings: Mycobacterium tuberculosis
[59] = THP-1 cell cytotoxicity, dose response, cytotoxicity control, set 3 (AID 504852); assay type: functional; settings: Mycobacterium tuberculosis
[60] = biological target: T1, Corticotropin-releasing factor receptor 2/Corticotropin-releasing factor-binding protein; test: Dose Response confirmation of uHTS hits for small molecule antagonists of the CRF-binding protein and CRF-R2 receptor complex.; assay type: functional; settings: read-out: IC50_Mean
[61] = Vero cell cytotoxicity, dose response, cytotoxicity control for M. tuberculosis growth inhibitor project, Vero cells, purified and synthesized compounds, set 4 (AID 504854); assay type: functional; settings: Mycobacterium tuberculosis
[62] = THP-1 cell cytotoxicity, cytotoxicity control, set 4 (AID 504911); assay type: functional; settings: Mycobacterium tuberculosis
[63] = HepG2 cell cytotoxicity, cytotoxicity control, set 4 (AID 504910); assay type: functional; settings: Mycobacterium tuberculosis
[64] = CRF-BP/CRF-R2 complex antagonists, dose response, cell-based, uHTS hits, 384-well (AID 651639); assay type: functional, Homo sapiens; settings: read-out: IC50_Mean
[65] = A Cell Based Secondary Assay to Explore Cytotoxicity in THP-1 Cells of Compounds that Modulate Mycobacterium tuberculosis in Media Containing Glycerol versus Media without Glycerol (2).; assay type: functional
[66] = Vero cell cytotoxicity, cytotoxicity control for M. tuberculosis inhibitor project, purified and synthesized samples, set 3 (AID 504684); assay type: functional

COc1cc2ncc3c(N)nc4c(C)c(N)ccc4c3c2cc1OC
Ki [1]: > 3.16 µM (inactive)
Ki [2]: > 2.51 µM (inactive)
Ki [3]: > 3.16 µM (inactive)
Ki (Activin receptor type-1): > 3.98 µM (inactive)
Ki [4]: > 5.01 µM (inactive)
Ki [5]: > 3.16 µM (inactive)
Ki [6]: 3.98 µM (active)
Ki [7]: > 3.98 µM (inactive)
Ki [8]: > 2 µM (inactive)
Ki [9]: > 3.98 µM (inactive)
Ki [10]: > 3.98 µM (inactive)
Ki [11]: > 6.31 µM (inactive)
Ki [12]: 0.158 µM (active)
Ki [13]: 0.0631 µM (active)
Ki [14]: > 3.98 µM (inactive)
Ki [15]: > 3.98 µM (inactive)
Ki [16]: > 3.16 µM (inactive)
Ki [17]: > 3.16 µM (inactive)
Ki [18]: > 3.98 µM (inactive)
Ki [19]: > 2.51 µM (inactive)
Ki [20]: > 5.01 µM (inactive)
Ki [21]: > 3.98 µM (inactive)
Ki [22]: > 3.98 µM (inactive)
Ki [23]: > 3.16 µM (inactive)
Ki [24]: > 2.51 µM (inactive)
Ki [25]: > 2.51 µM (inactive)
Ki [26]: > 3.98 µM (inactive)
Ki (Aurora kinase A): > 1.58 µM (inactive)
Ki [27]: > 2.51 µM (inactive)
Ki [28]: > 3.98 µM (inactive)
Ki [29]: > 6.31 µM (inactive)
Ki [30]: > 3.98 µM (inactive)
Ki [31]: > 6.31 µM (inactive)
Ki [32]: > 100 µM (inactive)
Ki [33]: > 3.98 µM (inactive)
Ki [34]: > 2.51 µM (inactive)
Ki [35]: 3.16 µM (active)
Ki [36]: > 2.51 µM (inactive)
Ki [37]: > 3.98 µM (inactive)
Ki [38]: > 3.16 µM (inactive)
Ki [39]: > 3.98 µM (inactive)
Ki [40]: > 6.31 µM (inactive)
Ki [41]: > 3.16 µM (inactive)
Ki [42]: > 1.58 µM (inactive)
Ki [43]: > 7.94 µM (inactive)
Ki [44]: > 5.01 µM (inactive)
Ki [45]: > 6.31 µM (inactive)
Ki [46]: > 2.51 µM (inactive)
Ki [47]: > 2.51 µM (inactive)
Ki (Activated CDC42 kinase 1): > 3.98 µM (inactive)
Ki [48]: > 3.16 µM (inactive)
Ki [49]: > 3.16 µM (inactive)
Ki [50]: > 6.31 µM (inactive)
Ki [51]: > 1.26 µM (inactive)
Ki [52]: > 2.51 µM (inactive)
Ki [53]: > 5.01 µM (inactive)

Cc1ccc(C(=O)N/N=C(/CC(=O)c2cccs2)C(F)(F)F)cc1
EC50 [54]: > 53 µM (inactive)
CC50 [55]: 28.2 µM (active)
CC50 [56]: 35 µM (active)
CC50 [57]: 34.4 µM (active)
CC50 [58]: > 50 µM (active)
CC50 [59]: 51.4 µM (active)
IC50 [60]: 4.48 µM (active)
CC50 [61]: 55 µM (active)
CC50 [62]: 46.3 µM (active)
CC50 [63]: 38.8 µM (active)
IC50 [64]: 16 µM (active)
CC50 [65]: 89.8 µM (active)
CC50 [66]: 61.7 µM (active)
